Data published in the supplement of paper PMC12463676, “Small-molecule dissolution of stress granules by redox modulation benefits ALS models” (Nature Chemical Biology, 2025).

Compound: NC(=O)CCCCC1CCSS1 [lipoamide]
Test: thermal stability z-score vs DMSO; higher = more thermally stabilized by treatment
Conditions: HeLa; lipoamide concentration 100 µM; arsenate co-treatment: 1 mM arsenate 1 h
Description: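 Cellular thermal proteome profiling in HeLa cells. Cells were treated with 100 µM lipoamide for 1 h, with or without 1 mM arsenate for a further 1 h, then heated to ten temperatures (37-66.3 °C), and soluble protein was quantified by TMT mass spectrometry relative to 0.1% DMSO controls. The thermal stability score (sum of log2 fold changes minus the abundance score) was transformed to a z-score; mean of n = 3 experiments.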
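Also: each temperature applied for 3 min, abundance score taken as mean log2 fold change at the two lowest temperatures, z-score obtained by mean subtraction and division by SD.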

UniProt O43310, sequence (O43310 whole entry): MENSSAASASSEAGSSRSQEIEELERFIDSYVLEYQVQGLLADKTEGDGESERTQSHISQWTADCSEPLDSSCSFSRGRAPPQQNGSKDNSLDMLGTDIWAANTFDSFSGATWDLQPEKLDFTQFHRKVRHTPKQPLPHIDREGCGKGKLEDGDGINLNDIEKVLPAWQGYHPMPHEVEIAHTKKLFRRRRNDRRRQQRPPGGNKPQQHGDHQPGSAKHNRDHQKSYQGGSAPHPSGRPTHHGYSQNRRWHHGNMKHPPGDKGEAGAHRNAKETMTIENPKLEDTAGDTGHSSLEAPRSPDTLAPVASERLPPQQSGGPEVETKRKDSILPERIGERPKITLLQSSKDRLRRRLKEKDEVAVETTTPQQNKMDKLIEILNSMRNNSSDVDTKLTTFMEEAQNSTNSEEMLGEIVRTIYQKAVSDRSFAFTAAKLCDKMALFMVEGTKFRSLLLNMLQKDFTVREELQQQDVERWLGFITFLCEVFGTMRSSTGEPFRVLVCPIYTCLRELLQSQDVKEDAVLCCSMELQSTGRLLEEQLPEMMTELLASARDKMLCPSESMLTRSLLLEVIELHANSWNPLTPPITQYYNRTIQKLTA
UniProt Q9Y3F4, sequence (Q9Y3F4 whole entry): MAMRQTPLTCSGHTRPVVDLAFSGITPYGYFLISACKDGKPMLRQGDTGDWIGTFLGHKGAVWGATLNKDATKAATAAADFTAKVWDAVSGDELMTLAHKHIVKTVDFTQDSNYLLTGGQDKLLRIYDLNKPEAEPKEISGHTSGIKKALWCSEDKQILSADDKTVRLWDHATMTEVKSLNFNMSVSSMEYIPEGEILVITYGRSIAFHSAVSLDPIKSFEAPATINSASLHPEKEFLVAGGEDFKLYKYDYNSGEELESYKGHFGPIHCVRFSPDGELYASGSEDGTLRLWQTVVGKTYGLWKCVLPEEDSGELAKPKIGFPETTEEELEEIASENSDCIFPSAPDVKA
UniProt Q14739, sequence (Q14739 whole entry): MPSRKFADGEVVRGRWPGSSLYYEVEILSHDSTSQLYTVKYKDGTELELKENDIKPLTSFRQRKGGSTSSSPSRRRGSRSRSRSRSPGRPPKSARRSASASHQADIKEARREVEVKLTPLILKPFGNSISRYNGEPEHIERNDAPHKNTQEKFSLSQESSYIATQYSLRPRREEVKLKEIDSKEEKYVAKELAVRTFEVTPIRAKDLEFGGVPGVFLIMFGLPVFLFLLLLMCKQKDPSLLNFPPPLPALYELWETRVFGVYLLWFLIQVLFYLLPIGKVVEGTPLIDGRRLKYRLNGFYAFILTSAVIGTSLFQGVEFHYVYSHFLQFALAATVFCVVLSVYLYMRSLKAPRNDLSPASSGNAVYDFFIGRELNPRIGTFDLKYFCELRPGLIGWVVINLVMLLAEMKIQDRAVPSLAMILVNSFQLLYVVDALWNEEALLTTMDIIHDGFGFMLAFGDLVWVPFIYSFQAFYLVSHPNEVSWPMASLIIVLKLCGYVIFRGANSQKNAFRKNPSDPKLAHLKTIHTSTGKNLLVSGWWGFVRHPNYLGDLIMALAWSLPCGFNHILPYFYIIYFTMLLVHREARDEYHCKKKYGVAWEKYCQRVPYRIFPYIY
UniProt O60294, sequence (O60294 whole entry): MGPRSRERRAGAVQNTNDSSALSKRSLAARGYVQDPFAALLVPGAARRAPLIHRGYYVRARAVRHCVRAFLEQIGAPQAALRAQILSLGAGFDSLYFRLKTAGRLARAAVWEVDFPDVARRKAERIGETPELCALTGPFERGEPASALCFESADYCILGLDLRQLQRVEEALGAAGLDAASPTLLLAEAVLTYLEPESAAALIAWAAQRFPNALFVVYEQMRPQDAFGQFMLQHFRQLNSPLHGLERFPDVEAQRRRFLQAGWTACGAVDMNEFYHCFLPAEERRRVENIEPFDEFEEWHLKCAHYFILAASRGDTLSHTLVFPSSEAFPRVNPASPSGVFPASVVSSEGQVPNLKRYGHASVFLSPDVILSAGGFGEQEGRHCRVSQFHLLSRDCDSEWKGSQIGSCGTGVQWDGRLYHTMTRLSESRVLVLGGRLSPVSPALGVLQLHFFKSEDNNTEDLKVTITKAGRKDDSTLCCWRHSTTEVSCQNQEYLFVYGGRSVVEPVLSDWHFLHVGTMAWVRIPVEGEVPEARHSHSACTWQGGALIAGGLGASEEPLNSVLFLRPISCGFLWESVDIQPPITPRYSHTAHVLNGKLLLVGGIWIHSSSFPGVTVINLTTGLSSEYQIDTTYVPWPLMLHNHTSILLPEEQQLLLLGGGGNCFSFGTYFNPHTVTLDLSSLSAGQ
UniProt Q05513, sequence (Q05513 whole entry): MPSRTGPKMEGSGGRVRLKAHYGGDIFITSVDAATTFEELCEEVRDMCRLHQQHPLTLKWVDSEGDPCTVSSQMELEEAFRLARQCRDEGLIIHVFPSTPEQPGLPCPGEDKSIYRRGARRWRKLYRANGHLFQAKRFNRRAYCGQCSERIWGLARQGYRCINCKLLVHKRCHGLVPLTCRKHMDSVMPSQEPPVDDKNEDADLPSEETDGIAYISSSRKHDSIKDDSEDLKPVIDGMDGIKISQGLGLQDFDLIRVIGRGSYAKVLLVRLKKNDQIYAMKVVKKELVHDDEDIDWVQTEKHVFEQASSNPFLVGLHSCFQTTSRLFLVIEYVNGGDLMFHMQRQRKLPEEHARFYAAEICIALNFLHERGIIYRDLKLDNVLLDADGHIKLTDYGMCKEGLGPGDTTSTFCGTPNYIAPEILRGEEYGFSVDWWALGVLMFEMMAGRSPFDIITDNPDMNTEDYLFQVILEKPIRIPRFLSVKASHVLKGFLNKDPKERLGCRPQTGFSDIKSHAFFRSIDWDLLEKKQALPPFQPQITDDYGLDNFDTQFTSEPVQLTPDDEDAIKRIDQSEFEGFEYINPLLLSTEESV
UniProt Q15398, sequence (Q15398 whole entry): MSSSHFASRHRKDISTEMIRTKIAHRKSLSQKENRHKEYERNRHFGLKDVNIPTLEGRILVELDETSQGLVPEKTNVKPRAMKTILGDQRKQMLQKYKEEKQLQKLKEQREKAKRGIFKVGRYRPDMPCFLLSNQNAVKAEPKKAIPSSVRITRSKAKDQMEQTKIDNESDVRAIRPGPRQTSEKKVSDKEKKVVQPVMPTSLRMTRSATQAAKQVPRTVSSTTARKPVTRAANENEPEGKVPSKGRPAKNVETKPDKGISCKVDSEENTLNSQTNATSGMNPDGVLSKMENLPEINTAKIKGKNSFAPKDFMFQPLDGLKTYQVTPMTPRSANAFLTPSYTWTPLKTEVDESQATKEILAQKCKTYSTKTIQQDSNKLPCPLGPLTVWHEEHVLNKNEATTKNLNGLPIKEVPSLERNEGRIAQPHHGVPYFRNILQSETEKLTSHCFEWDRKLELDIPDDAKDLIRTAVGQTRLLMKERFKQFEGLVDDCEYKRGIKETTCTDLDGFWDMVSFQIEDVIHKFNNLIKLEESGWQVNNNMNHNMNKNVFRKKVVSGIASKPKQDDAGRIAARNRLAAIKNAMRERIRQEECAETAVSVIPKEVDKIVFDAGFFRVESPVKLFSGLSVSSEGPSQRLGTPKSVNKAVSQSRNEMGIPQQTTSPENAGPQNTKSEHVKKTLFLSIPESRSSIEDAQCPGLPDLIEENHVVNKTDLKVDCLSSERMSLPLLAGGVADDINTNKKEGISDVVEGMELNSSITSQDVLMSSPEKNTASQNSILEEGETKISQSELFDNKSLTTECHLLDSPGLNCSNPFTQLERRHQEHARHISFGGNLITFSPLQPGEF
UniProt P49189, sequence (P49189 whole entry): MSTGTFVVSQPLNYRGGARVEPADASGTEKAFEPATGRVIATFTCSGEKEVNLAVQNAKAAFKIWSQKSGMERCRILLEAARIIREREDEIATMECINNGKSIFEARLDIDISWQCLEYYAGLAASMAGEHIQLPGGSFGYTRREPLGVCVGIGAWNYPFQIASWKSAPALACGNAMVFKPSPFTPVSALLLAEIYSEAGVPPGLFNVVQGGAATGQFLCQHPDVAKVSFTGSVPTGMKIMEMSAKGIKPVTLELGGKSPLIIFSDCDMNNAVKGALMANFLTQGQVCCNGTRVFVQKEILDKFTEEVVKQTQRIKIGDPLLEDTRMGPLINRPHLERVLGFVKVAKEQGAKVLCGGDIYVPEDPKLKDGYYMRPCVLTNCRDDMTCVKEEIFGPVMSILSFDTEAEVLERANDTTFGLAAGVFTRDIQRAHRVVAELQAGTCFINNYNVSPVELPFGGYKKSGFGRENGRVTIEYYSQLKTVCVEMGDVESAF
UniProt P39656, sequence (P39656 whole entry): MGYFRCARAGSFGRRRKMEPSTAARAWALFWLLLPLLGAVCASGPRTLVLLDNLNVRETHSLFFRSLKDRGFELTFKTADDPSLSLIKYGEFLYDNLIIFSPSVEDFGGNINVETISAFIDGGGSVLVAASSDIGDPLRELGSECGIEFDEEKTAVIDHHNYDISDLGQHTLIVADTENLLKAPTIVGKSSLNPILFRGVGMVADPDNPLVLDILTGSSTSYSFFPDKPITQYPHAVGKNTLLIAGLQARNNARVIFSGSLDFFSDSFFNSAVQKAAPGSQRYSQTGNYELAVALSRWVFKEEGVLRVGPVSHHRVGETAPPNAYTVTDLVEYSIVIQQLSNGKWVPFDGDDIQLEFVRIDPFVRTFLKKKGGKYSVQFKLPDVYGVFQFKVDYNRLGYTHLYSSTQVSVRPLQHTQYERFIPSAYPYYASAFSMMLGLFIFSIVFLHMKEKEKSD
UniProt Q96EQ0, sequence (Q96EQ0 whole entry): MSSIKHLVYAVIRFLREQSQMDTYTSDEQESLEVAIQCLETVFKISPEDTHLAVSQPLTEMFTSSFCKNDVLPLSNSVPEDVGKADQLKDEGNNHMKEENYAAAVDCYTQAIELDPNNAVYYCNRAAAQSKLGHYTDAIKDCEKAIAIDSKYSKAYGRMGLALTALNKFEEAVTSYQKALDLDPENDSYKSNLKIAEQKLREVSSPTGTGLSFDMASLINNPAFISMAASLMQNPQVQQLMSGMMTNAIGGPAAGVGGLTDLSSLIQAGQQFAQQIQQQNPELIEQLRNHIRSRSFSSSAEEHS

Row | Target | thermal stability z-score
1 | DDOST (UniProt P39656) | -3.14
2 | WTAP (UniProt Q15007) | 0.0767
3 | PPP1R8 (UniProt Q12972) | 0.0226
4 | PDCD6IP (UniProt Q8WUM4) | 1.3
5 | NDUFAF5 (UniProt Q5TEU4) | -0.066
6 | IDH3B (UniProt O43837) | 0.075
7 | CNPY3 (UniProt Q9BT09) | -4.03
8 | LBR (UniProt Q14739) | -0.0763
9 | TENM3 (UniProt Q9P273) | 0.179
10 | PSPC1 (UniProt Q8WXF1) | -0.0313
11 | ALDH9A1 (UniProt P49189) | -0.257
12 | CAV2 (UniProt P51636) | 1.26
13 | HP1BP3 (UniProt Q5SSJ5) | -0.693
14 | KDM1A (UniProt O60341) | 1.9
15 | LRP1 (UniProt Q07954) | -1.1
16 | POGLUT1 (UniProt Q8NBL1) | -3.26
17 | DNPH1 (UniProt O43598) | 0.0889
18 | WDR18 (UniProt Q9BV38) | 1.38
19 | SGTB (UniProt Q96EQ0) | 0.0457
20 | MARCH6 (UniProt O60337) | -0.245
21 | LCMT2 (UniProt O60294) | -0.107
22 | FAM98A (UniProt Q8NCA5) | -0.444
23 | STRAP (UniProt Q9Y3F4) | 0.312
24 | DLGAP5 (UniProt Q15398) | -0.352

Row | Target | thermal stability z-score
25 | ERLIN1 (UniProt O75477) | -3.16
26 | COX7B (UniProt P24311) | -0.0929
27 | DCTN5 (UniProt Q9BTE1) | -0.414
28 | WDR4 (UniProt P57081) | -0.105
29 | DPH2 (UniProt Q9BQC3) | -0.0475
30 | EPHA2 (UniProt P29317) | -0.528
31 | UQCRFS1 (UniProt P47985) | 0.00262
32 | PRKCZ (UniProt Q05513) | -0.134
33 | FPGS (UniProt Q05932) | 0.0221
34 | GPAM (UniProt Q9HCL2) | 1.02
35 | CTIF (UniProt O43310) | -0.164
36 | SERPINB1 (UniProt P30740) | 0.391
37 | FOXO1 (UniProt Q12778) | -0.211
38 | PCNP (UniProt Q8WW12) | 0.549
39 | RPL7 (UniProt P18124) | 1.02
40 | FBXL12 (UniProt Q9NXK8) | -0.195
41 | HMMR (UniProt O75330) | -0.103
42 | RBMS1 (UniProt P29558) | -0.643
43 | MRPL21 (UniProt Q7Z2W9) | -0.754
44 | CMPK1 (UniProt P30085) | -0.127
45 | BPGM (UniProt P07738) | -1.9
46 | UGT8 (UniProt Q16880) | 0.0311
47 | PTAR1 (UniProt Q7Z6K3) | 0.548
48 | SNAP23 (UniProt O00161) | 0.994

Row | Target | thermal stability z-score
49 | ITGA2 (UniProt P17301) | 0.217
50 | CAPG (UniProt P40121) | 0.598
51 | TRAPPC8 (UniProt Q9Y2L5) | 0.257
52 | DDX23 (UniProt Q9BUQ8) | 0.326
53 | PDCD4 (UniProt Q53EL6) | -0.493
54 | NADK2 (UniProt Q4G0N4) | 0.539
55 | VIM (UniProt P08670) | 1.82
56 | RPS24 (UniProt P62847) | 0.103
57 | WBSCR22 (UniProt O43709) | -0.223
58 | CPNE1 (UniProt Q99829) | 0.0896
59 | LTN1 (UniProt O94822) | 0.0185
60 | HIBADH (UniProt P31937) | -1.36
61 | SGK1 (UniProt O00141) | 0.0815
62 | CDC6 (UniProt Q99741) | -0.0605
63 | ABCC2 (UniProt Q92887) | 1.06
64 | CPS1 (UniProt P31327) | -0.756
65 | SUMO1 (UniProt P63165) | -0.294
66 | SIL1 (UniProt Q9H173) | -3.15
67 | IDH1 (UniProt O75874) | 0.0654
68 | ZBTB8OS (UniProt Q8IWT0) | -0.245
69 | CTCF (UniProt P49711) | 0.761
70 | GRIPAP1 (UniProt Q4V328) | 0.163
71 | TOR1AIP1 (UniProt Q5JTV8) | -2.27

Same assay, conditions: HeLa; lipoamide concentration 100 µM; arsenate co-treatment: none

Row | Target | thermal stability z-score
72 | DDOST (UniProt P39656) | -2.49
73 | WTAP (UniProt Q15007) | 0.0181
74 | PPP1R8 (UniProt Q12972) | -0.142
75 | PDCD6IP (UniProt Q8WUM4) | 1.06
76 | NDUFAF5 (UniProt Q5TEU4) | -0.112
77 | IDH3B (UniProt O43837) | -1.17
78 | CNPY3 (UniProt Q9BT09) | -4.98
79 | LBR (UniProt Q14739) | -0.097
80 | TENM3 (UniProt Q9P273) | -0.452
81 | PSPC1 (UniProt Q8WXF1) | 0.551
82 | ALDH9A1 (UniProt P49189) | -0.212
83 | CAV2 (UniProt P51636) | -0.268
84 | HP1BP3 (UniProt Q5SSJ5) | -0.792
85 | KDM1A (UniProt O60341) | 2.21
86 | LRP1 (UniProt Q07954) | -1.01
87 | POGLUT1 (UniProt Q8NBL1) | -3.23
88 | DNPH1 (UniProt O43598) | -0.11
89 | WDR18 (UniProt Q9BV38) | 0.361

Row | Target | thermal stability z-score
90 | SGTB (UniProt Q96EQ0) | 0.112
91 | MARCH6 (UniProt O60337) | -0.44
92 | LCMT2 (UniProt O60294) | -0.78
93 | FAM98A (UniProt Q8NCA5) | -0.673
94 | STRAP (UniProt Q9Y3F4) | 0.0419
95 | DLGAP5 (UniProt Q15398) | -0.378
96 | ERLIN1 (UniProt O75477) | -2.57
97 | COX7B (UniProt P24311) | -0.0319
98 | DCTN5 (UniProt Q9BTE1) | -0.0773
99 | WDR4 (UniProt P57081) | -0.0364
100 | DPH2 (UniProt Q9BQC3) | -0.355
101 | EPHA2 (UniProt P29317) | -0.029
102 | UQCRFS1 (UniProt P47985) | 0.279
103 | PRKCZ (UniProt Q05513) | -0.119
104 | FPGS (UniProt Q05932) | -0.181
105 | GPAM (UniProt Q9HCL2) | -0.15
106 | CTIF (UniProt O43310) | 0.404
